This assay in a line: Inhibition of CFD in 10% human serum assessed as reduction in alternate complement pathway-mediated hemolysis incubated for 1 hr.

With `C[C@H](NC(=O)[C@@H]1C[C@H]2C[C@H]2N1C(=O)Cn1nc(C(N)=O)c2cccnc21)c1cccc(Cl)c1F`, the IC50 – broadly, the concentration that inhibits the measured activity by half – was 6 nM.
